Results taken from ChEMBL document CHEMBL6153169, “Menominin A and B: Cytotoxic Cyclodepsipeptides from the Freshwater Sponge-Associated Cyanobacterium Nostoc sp. UIC 10607” (J Nat Prod, 2025).
pIC50: −log10 of the molar value.

Columns and labels:
[1] = tested on: OVCAR-3; assay: Cytotoxicity against human OVCAR-3 cells assessed as inhibition of cell growth incubated for 72 hrs by CellTiter 96 Aqueous One Solution based assay; format: functional; conditions: OVCAR-3, 72 h
[2] = tested on: MDA-MB-435; assay: Cytotoxicity against human MDA-MB-435 cells assessed as inhibition of cell growth incubated for 72 hrs by CellTiter 96 Aqueous One Solution based assay; format: functional; conditions: MDA-MB-435, 72 h

`CCCCCC[C@@H]1CCCC[C@@H](O)[C@H](C)C(=O)O[C@@H]([C@H](C)CC)C(=O)N[C@@H](Cc2ccccc2)C(=O)O1` showed a pIC50 [1] of 5.51 and a pIC50 [2] of 5.28.

`CCCCCC[C@@H]1CCCC[C@@H](O)[C@H](C)C(=O)O[C@@H](C(C)C)C(=O)N[C@@H](Cc2ccccc2)C(=O)O1` gave a pIC50 [1] of 5.62 and a pIC50 [2] of 5.54.

Compound `CC(=O)O[C@H]1C(=O)[C@@]2(C)[C@H]([C@H](OC(=O)c3ccccc3)[C@]3(O)C[C@H](OC(=O)[C@H](O)[C@@H](NC(=O)c4ccccc4)c4ccccc4)C(C)=C1C3(C)C)[C@]1(OC(C)=O)CO[C@@H]1C[C@@H]2O` [PACLITAXEL] has a pIC50 [1] of 8.66 and a pIC50 [2] of 9.28.
